Each block holds one molecule with its values, some of them ahead of it. Calls of active or inactive are those of the source.
Key:
[1] = target: Lysine-specific demethylase 4C (Homo sapiens, UniProt Q9H3R0); assay: inhibition of JMJD2C H3K9me3 demethylation – biochemical, DELFIA europium, cherry-picked samples, dose response (AID 488835); type: functional
[2] = target: G-protein coupled receptor 55 (Homo sapiens, UniProt Q9Y2T6); assay: blockers of GPR55 signalling, imaged – imaging, image-based, counter-screen for GPR35 antagonist project, SAR follow-up (AID 2397); type: functional
[3] = target: G-protein coupled receptor 35 (Homo sapiens, UniProt Q9HC97); assay: SAR Analysis for the identification of Selective Antagonists of ERK1/2 Activity in GPR35-Overexpressing U2OS Cells. [Related pubchem assays: 2079, 2058 ]; type: functional, cell-based
[4] = target: Beta-adrenergic receptor kinase 1 (Homo sapiens, UniProt P25098); assay: blockers of aptamer binding to GRK2 – biochemical, flow cytometry beads, FAM-aptamer, powder set 1, dose response (AID 588720)
HEK293 [5] = assay: cells; conditions: Homo sapiens
Tumor necrosis factor = Tumor necrosis factor (Homo sapiens, UniProt P01375); assay: analog potency on TNFa NF-kB signaling – cell-based, revised, SAR follow-up (AID 2337); type: functional
HEK293 [6] = assay: NOD2 signaling inhibitors in MDP-stimulated cells, cell-based, uHTS, luminescence (AID 2001); type: functional; conditions: Homo sapiens
HEK293 [7] = assay: cells; type: functional, cell-based; conditions: Homo sapiens
[8] = target: Nucleotide-binding oligomerization domain-containing protein 2 (Homo sapiens, UniProt Q9HC29); assay: PubChem AID 2334; type: functional
HEK293 [9] = assay: SAR Analysis of small molecule inhibitors of B-cell specific antigen receptor-induced NF-kB activation in a HEK-293T cell line using a luminescence assay - Set 2. [Related pubchem assays (depositor defined):AID435022, AID435025, AID489021]; type: functional, cell-based; conditions: Homo sapiens
HEK293 [10] = assay: HEK293T cell viability loss, resazurin readout – resazurin fluorescence, cytotoxicity control for NF-kB activator project, SAR follow-up (AID 493251); type: functional, cell-based; conditions: Homo sapiens
[11] = target: T1, Microphthalmia-associated transcription factor (Homo sapiens, UniProt O75030); assay: reducers of TRPM1 reporter luminescence, concentration series – cell-based, SK-MEL-5, cherry-picked, set 3, MITF inhibitor project, dose response (AID 493073); type: functional;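 also: SK-MEL-5 melanoma cells with luciferase driven by the MITF target TRPM1 promoter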
T1 sequence (O75030 whole entry): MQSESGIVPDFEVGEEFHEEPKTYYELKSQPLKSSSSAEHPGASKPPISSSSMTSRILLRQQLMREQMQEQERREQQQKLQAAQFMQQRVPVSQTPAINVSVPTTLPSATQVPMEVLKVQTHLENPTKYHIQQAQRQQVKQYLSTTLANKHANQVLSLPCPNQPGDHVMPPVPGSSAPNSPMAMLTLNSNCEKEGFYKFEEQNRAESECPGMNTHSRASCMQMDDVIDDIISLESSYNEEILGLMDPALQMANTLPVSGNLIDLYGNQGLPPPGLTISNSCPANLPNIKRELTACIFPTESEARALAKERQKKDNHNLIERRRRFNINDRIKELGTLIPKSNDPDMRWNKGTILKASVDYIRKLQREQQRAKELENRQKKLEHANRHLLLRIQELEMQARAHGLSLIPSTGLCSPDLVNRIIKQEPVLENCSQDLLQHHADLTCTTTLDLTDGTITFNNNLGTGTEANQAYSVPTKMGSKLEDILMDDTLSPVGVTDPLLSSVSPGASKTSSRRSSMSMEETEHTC

HEK293 [12] = assay: cells; type: functional, cell-based; conditions: Homo sapiens; remark: listed apart in the source
HEK293 [13] = assay: inhibition of NOD1-driven NF-kB reporter – cell-based, luminescence, uHTS, primary screen (AID 1578); type: functional; conditions: Homo sapiens
[14] = HEK-293T cell viability reduction – luminescence, B-cell screen hits, cytotoxicity control for BCR NF-kB inhibitor project, dose response (AID 489021); type: functional, cell-based;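 also: HEK-293T cells carrying an NF-kB luciferase reporter; cells exposed to compound for about 14 hours before viability readout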
[15] = target: Nucleotide-binding oligomerization domain-containing protein 1 (Homo sapiens, UniProt Q9Y239); assay: blockers of NOD1 pathway activity – revised, SAR follow-up (AID 2333); type: functional
Jurkat = assay: SAR Analysis of small molecule inhibitors of […] specific antigen receptor-induced NF-kB activation in a Jurkat cell line using a luminescence assay - Set 3. [Related pubchem assays (depositor defined):AID435022, AID435025, AID465]; type: functional, cell-based; conditions: Homo sapiens

Chain of G-protein coupled receptor 35 (Q9HC97 whole entry): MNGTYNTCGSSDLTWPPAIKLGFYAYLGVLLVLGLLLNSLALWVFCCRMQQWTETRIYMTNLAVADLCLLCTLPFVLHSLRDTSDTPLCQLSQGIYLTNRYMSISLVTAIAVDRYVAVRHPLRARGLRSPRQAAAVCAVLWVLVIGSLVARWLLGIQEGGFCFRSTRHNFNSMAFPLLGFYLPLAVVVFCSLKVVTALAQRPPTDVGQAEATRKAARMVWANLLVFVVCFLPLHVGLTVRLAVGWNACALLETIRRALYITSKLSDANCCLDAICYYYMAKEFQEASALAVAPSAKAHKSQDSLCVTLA
Chain of Beta-adrenergic receptor kinase 1 (P25098 whole entry): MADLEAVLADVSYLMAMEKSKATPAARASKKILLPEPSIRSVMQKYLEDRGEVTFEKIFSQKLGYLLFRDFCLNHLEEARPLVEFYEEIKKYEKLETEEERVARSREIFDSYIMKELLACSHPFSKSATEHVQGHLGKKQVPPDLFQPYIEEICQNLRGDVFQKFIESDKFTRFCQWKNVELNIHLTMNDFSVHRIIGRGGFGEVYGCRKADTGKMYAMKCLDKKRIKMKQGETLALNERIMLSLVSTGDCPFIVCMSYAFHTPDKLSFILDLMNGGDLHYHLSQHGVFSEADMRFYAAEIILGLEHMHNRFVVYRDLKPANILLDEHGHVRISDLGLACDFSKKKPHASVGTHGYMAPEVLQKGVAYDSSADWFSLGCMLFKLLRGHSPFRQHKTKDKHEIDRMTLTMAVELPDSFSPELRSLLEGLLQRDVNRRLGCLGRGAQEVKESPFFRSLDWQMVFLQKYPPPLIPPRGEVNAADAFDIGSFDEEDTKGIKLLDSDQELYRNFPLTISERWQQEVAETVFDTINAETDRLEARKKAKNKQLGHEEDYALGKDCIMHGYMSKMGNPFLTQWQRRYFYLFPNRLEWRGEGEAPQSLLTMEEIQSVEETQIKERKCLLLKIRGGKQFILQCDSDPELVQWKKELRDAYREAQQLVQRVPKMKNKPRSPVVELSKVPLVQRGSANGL
Chain of Nucleotide-binding oligomerization domain-containing protein 2 (Q9HC29 whole entry, the tested form may be a part): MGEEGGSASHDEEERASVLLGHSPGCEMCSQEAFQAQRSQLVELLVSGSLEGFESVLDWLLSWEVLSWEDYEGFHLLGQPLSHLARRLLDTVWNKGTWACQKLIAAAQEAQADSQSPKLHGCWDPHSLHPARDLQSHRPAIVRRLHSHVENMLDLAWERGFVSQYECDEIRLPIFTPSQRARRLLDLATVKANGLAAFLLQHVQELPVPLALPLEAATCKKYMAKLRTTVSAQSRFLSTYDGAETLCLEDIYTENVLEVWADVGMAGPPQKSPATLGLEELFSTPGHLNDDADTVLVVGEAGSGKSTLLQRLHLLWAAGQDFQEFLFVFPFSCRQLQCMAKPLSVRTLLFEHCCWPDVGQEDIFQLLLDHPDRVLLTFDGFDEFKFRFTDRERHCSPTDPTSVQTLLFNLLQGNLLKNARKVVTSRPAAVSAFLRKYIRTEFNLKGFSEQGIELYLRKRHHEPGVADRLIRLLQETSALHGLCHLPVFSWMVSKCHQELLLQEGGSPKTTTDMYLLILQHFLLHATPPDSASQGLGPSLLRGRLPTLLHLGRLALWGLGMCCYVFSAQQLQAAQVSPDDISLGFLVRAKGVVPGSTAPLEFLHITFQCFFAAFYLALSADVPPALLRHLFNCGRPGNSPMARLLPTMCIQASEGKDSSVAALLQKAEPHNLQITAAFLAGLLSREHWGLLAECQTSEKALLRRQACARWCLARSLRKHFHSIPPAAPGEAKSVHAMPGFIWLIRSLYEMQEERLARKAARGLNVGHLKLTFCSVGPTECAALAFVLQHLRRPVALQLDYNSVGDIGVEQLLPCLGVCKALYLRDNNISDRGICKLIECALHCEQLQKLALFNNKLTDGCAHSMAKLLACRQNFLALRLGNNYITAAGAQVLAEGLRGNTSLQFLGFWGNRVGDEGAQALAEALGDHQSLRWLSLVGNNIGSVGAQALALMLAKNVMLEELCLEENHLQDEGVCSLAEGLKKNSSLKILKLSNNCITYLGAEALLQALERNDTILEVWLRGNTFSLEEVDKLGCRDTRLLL
Chain of Lysine-specific demethylase 4C (Q9H3R0 whole entry): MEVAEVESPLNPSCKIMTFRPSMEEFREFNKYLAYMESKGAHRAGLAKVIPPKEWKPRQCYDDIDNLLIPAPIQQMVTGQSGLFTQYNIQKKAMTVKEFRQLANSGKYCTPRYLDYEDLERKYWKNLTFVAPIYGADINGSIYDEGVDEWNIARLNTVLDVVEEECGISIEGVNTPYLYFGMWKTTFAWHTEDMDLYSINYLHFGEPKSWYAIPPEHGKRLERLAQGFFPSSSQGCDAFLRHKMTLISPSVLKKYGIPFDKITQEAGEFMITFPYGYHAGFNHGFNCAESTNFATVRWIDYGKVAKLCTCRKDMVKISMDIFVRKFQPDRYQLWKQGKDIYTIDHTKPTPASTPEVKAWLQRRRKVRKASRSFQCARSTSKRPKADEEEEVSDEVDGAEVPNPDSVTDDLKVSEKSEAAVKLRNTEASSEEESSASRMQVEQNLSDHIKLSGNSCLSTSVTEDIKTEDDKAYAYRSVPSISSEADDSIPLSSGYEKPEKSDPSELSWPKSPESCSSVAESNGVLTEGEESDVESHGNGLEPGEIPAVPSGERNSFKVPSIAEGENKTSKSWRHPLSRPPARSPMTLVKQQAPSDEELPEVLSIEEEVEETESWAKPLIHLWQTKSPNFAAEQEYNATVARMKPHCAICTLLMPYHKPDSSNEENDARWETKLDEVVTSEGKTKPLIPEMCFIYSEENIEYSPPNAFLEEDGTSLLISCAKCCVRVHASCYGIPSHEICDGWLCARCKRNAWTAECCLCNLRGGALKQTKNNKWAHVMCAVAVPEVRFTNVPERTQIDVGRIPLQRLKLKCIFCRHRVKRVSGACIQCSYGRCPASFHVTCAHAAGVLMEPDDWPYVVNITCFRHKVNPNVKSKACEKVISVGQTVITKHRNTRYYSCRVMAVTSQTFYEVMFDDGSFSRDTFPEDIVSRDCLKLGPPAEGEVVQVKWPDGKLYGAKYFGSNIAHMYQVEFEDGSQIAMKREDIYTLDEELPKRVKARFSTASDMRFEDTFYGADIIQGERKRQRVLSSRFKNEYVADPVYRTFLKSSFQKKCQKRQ
Chain of Tumor necrosis factor (P01375 whole entry): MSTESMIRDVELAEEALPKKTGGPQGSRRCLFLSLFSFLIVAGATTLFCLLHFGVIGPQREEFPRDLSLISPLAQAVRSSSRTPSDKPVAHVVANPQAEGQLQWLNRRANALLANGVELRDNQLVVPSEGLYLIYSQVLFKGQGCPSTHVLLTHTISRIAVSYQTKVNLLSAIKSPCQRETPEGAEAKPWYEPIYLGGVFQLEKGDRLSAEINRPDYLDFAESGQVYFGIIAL
Chain of Nucleotide-binding oligomerization domain-containing protein 1 (Q9Y239 whole entry, the tested form may be a part): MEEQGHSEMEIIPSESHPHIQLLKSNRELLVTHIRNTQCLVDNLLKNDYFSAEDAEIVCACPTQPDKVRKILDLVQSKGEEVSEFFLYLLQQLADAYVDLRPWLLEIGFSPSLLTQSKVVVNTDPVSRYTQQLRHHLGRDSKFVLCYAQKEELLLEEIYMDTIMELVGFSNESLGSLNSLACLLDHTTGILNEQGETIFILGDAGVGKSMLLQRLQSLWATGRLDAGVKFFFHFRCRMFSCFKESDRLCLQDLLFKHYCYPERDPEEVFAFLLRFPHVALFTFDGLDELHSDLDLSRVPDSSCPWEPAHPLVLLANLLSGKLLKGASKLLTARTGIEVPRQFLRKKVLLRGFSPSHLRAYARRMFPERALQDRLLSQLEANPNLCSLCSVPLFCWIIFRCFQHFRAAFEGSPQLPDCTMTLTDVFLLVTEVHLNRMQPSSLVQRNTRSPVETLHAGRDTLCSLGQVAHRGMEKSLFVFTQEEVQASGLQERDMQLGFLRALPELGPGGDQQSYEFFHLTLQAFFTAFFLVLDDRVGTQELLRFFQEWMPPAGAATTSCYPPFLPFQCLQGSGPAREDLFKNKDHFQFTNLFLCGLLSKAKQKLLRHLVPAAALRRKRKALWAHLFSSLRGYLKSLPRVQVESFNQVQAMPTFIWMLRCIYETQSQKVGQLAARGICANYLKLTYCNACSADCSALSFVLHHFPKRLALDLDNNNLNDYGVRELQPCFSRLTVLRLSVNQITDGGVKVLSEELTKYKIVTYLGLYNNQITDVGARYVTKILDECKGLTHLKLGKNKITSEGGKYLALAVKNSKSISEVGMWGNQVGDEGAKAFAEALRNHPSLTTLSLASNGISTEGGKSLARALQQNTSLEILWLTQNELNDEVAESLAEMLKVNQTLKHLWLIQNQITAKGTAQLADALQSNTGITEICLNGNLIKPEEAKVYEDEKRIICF
Chain of G-protein coupled receptor 55 (Q9Y2T6 whole entry): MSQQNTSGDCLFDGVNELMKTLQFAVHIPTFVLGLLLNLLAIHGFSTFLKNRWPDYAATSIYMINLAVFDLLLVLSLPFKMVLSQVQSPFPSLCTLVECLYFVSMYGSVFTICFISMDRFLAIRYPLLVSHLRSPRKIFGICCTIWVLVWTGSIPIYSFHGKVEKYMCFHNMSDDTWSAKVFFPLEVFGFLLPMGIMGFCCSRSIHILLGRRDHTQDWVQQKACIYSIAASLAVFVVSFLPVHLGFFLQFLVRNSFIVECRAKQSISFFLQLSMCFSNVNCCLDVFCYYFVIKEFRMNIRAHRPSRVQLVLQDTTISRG

AC50 [1]: 8.69 µM (active)
SMILES: Oc1cc(NC2CCCCCC2)nc(O)n1

IC50 [2]: 21.4 µM (inactive)
IC50 [3]: 20.6 µM (not active)
SMILES: Cc1c(C(=O)Nc2ccc3c(c2)OCCO3)sc2ncnc(N3CCC(C)CC3)c12

EC50 [4]: 2 µM (active)
SMILES: Cc1cccc(N2CCN(C(=O)CCS(=O)(=O)c3ccc(Br)cc3)CC2C)c1 (configuration not stated)

SMILES: CC(C)(C)c1ccc(-c2noc(CCC(=O)NCc3ccco3)n2)cc1
IC50 (HEK293 [5]): > 20 µM (inactive)
IC50 (Tumor necrosis factor): 6.76 µM (active)
IC50 (HEK293 [6]): > 20 µM (inactive)
IC50 (HEK293 [7]): > 20 µM (inactive)
IC50 [8]: 2.16 µM (active)
IC50 (HEK293 [9]): 2.39 µM (active)
IC50 (HEK293 [10]): 49.2 µM (inactive)
AC50 [11]: 122 nM (active)
IC50 (HEK293 [12]): > 20 µM (inactive)
EC50 (HEK293 [13]): 8.42 µM (active)
IC50 [14]: > 80 µM (inactive)
IC50 [15]: 3.68 µM (active)
IC50 (Jurkat): > 80 µM (inactive)
